Source: ChEMBL document CHEMBL3046360, “Design, synthesis and preliminary antiviral screening of new N-phenylpyrazole and dihydroisoxazole derivatives” (Med Chem Res, 2010)
pEC50: −log10 of the molar value. Activity calls are given as the source filed them. No cut-off for these calls is given here.

Columns and labels:
Human alphaherpesvirus 1 [1] = experiment: Antiviral activity against Human herpesvirus 1 infected Vero cells assessed as reduction in viral plaque at 10 ug/ml after overnight incubation by crystal violet staining; format: functional; parameters: scale not given: the % may be the effect or the level left
[2] = test system: Human immunodeficiency virus 2; experiment: Antiviral activity against Human immunodeficiency virus type 2 (ISOLATE ROD) infected MT4 cells assessed as inhibition of virus-induced cytopathic effect up to 20 ug/ml after 5 days by MTT assay; format: functional, organism-based
[3] = Cytotoxicity against Chlorocebus aethiops (African green monkey) Vero cells after 3 days by microscopic analysis; format: cell-based; conditions: chlorocebus sabaeus
[4] = test system: Human immunodeficiency virus 1; experiment: Antiviral activity against Human immunodeficiency virus 1 IIIB infected MT4 cells assessed as inhibition of virus-induced cytopathic effect up to 20 ug/ml after 5 days by MTT assay; format: functional, organism-based
Human alphaherpesvirus 1 [5] = experiment: Antiviral activity against Human herpesvirus 1 infected Vero cells assessed as reduction in viral plaque at 20 ug/ml after overnight incubation by crystal violet staining; format: functional; parameters: scale not given: the % may be the effect or the level left
Hepatovirus A [6] = experiment: Antiviral activity against Hepatitis A virus infected Vero cells assessed as reduction in viral plaque at 10 ug/ml after overnight incubation by crystal violet staining; format: functional; parameters: scale not given: the % may be the effect or the level left
Hepatovirus A [7] = experiment: Antiviral activity against Hepatitis A virus infected Vero cells assessed as reduction in viral plaque at 20 ug/ml after overnight incubation by crystal violet staining; format: functional; parameters: scale not given: the % may be the effect or the level left
Human alphaherpesvirus 2 = experiment: Antiviral activity against Human herpesvirus 2 strain G infected HEL cells assessed as inhibition of virus-induced cytopathic effect after 3 days by MTT assay; format: functional, organism-based; conditions: Human alphaherpesvirus 2, strain G, 72 h
[8] = Cytotoxicity against Homo sapiens (human) HEL cells after 3 days by microscopic analysis; format: cell-based
[9] = test system: Vesicular stomatitis virus; experiment: Antiviral activity against Vesicular stomatitis virus infected HEL cells assessed as inhibition of virus-induced cytopathic effect after 3 days by MTT assay; format: functional, organism-based; conditions: 72 h
Vaccinia virus = experiment: Antiviral activity against Vaccinia virus infected in HEL cells assessed as inhibition of virus-induced cytopathic effect after 3 days by MTT assay; format: functional, organism-based; conditions: Orthopoxvirus vaccinia, 72 h
Human alphaherpesvirus 1 [10] = experiment: Antiviral activity against acyclovir-resistant TK-deficient Hepres simplex virus 1 KOS infected in HEL cells assessed as inhibition of virus-induced cytopathic effect after 3 days by MTT assay; format: functional, organism-based; conditions: Human alphaherpesvirus 1, KOS, 72 h
Coxsackievirus B4 [11] = experiment: Antiviral activity against Human coxsackievirus B4 infected Vero cells assessed as inhibition of virus-induced cytopathic effect after 3 days by MTT assay; format: functional, organism-based; conditions: Enterovirus B, 72 h
Human respirovirus 3 = experiment: Antiviral activity against Human parainfluenza virus 3 infected Vero cells assessed as inhibition of virus-induced cytopathic effect after 3 days by MTT assay; format: functional, organism-based; conditions: Human respirovirus 3, Vero, 72 h
Human alphaherpesvirus 1 [12] = experiment: Antiviral activity against Human herpesvirus 1 strain KOS infected in HEL cells assessed as inhibition of virus-induced cytopathic effect after 3 days by MTT assay; format: functional, organism-based; conditions: Human alphaherpesvirus 1, KOS, 72 h
Reovirus sp. = experiment: Antiviral activity against Mammalian orthoreovirus 1 virus infected Vero cells assessed as inhibition of virus-induced cytopathic effect after 3 days by MTT assay; format: functional, organism-based; conditions: 72 h
[13] = Cytotoxicity against Homo sapiens (human) HeLa cells after 3 days by microscopic analysis; format: cell-based
Sindbis virus = experiment: Antiviral activity against Sindbis virus infected Vero cells assessed as inhibition of virus-induced cytopathic effect after 3 days by MTT assay; format: functional, organism-based; conditions: 72 h
[14] = Selectivity ratio of MCC for human HEL cells to EC50 for Vaccinia virus; format: ADME, cell-based
Punta Toro virus = experiment: Antiviral activity against Punta Toro virus infected Vero cells assessed as inhibition of virus-induced cytopathic effect after 3 days by MTT assay; format: functional, organism-based; conditions: 72 h
[15] = test system: Vesicular stomatitis virus; experiment: Antiviral activity against Vesicular stomatitis virus infected HeLa cells assessed as inhibition of virus-induced cytopathic effect after 3 days by MTT assay; format: functional, organism-based; conditions: 72 h
[16] = Selectivity ratio of MCC for human HEL cells to EC50 for Vesicular stomatitis virus; format: ADME, cell-based
[17] = Selectivity ratio of MCC for human HEL cells to EC50 for Herpes simplex virus 1 KOS; format: ADME, cell-based
[18] = Selectivity ratio of MCC for human HEL cells to EC50 for Herpes simplex virus 2 G; format: ADME, cell-based
[19] = test system: Respiratory syncytial virus; experiment: Antiviral activity against Respiratory syncytial virus infected HeLa cells assessed as inhibition of virus-induced cytopathic effect after 3 days by MTT assay; format: functional, organism-based; conditions: human respiratory syncytial virus, 72 h
Coxsackievirus B4 [20] = experiment: Antiviral activity against Human coxsackievirus B4 infected HeLa cells assessed as inhibition of virus-induced cytopathic effect after 3 days by MTT assay; format: functional, organism-based; conditions: Enterovirus B, 72 h
[21] = Selectivity ratio of MCC for human HEL cells to EC50 for acyclovir-resistant TK-deficient Hepres simplex virus 1 KOS; format: ADME, cell-based

Row | Structure (SMILES) | Activity (Human alphaherpesvirus 1 [1]) [%] | Activity [2] | MCC at 72 h [3] | Activity [4] | Activity (Human alphaherpesvirus 1 [5]) [%] | Activity (Hepatovirus A [6]) [%] | Activity (Hepatovirus A [7]) [%] | pEC50 (Human alphaherpesvirus 2) | MCC at 72 h [8] | pEC50 [9] | pEC50 (Vaccinia virus) | pEC50 (Human alphaherpesvirus 1 [10]) | pEC50 (Coxsackievirus B4 [11]) | pEC50 (Human respirovirus 3) | pEC50 (Human alphaherpesvirus 1 [12]) | pEC50 (Reovirus sp.) | MCC at 72 h [13] | pEC50 (Sindbis virus) | EC50 (Human alphaherpesvirus 2) [µg/mL] | EC50 (Coxsackievirus B4 [11]) [µg/mL] | EC50 (Punta Toro virus) [µg/mL] | EC50 [15] [µg/mL] | EC50 [9] [µg/mL] | EC50 (Vaccinia virus) [µg/mL] | EC50 (Human respirovirus 3) [µg/mL] | EC50 (Human alphaherpesvirus 1 [12]) [µg/mL] | EC50 (Human alphaherpesvirus 1 [10]) [µg/mL] | EC50 (Reovirus sp.) [µg/mL] | EC50 (Sindbis virus) [µg/mL] | pEC50 (Punta Toro virus) | pEC50 [15] | other results
1 | c1ccc(COc2ccc(C3CC(c4ccccc4)=NO3)cc2)cc1 (stereo not given) | 3 | inactive | > 100 µg/mL | inactive | 15 | 0 | 2 | – | – | – | – | – | – | – | – | – | – | – | – | – | – | – | – | – | – | – | – | – | – | – | – | –
2 | Clc1ccc(C2=NOC(c3ccc(OCc4ccccc4)cc3)C2)cc1 (stereo not given) | 38 | inactive | > 100 µg/mL | inactive | 60 | 10 | 58 | – | – | – | – | – | – | – | – | – | – | – | – | – | – | – | – | – | – | – | – | – | – | – | – | –
3 | Nc1nc2c(ncn2COC(CO)CO)c(=O)[nH]1 [GANCICLOVIR] | – | – | – | – | – | – | – | 7.10 | > 100 µM | < 4.00 | < 4.00 | 5.22 | – | – | – | – | – | – | – | – | – | – | – | – | – | – | – | – | – | – | – | –
4 | NC(=O)c1ncn([C@@H]2O[C@H](CO)[C@@H](O)[C@H]2O)n1 [RIBAVIRIN] | – | – | > 250 µM | – | – | – | – | < 3.60 | > 250 µM | < 3.60 | – | < 3.60 | < 3.60 | 4.35 | < 3.60 | < 3.60 | > 250 µM | < 3.60 | – | – | – | – | – | – | – | – | – | – | – | – | – | –
5 | Brc1ccc(C2=NOC(c3ccc(OCc4ccccc4)cc3)C2)cc1 (stereo not given) | 26.1 | inactive | ≥ 20 µg/mL | inactive | 67 | 7.3 | 21 | – | – | – | – | – | – | – | – | – | – | – | – | – | – | – | – | – | – | – | – | – | – | – | – | –
6 | Brc1ccc(C2=NN(c3ccccc3)C(c3ccc(OCc4ccccc4)cc3)C2)cc1 (stereo not given) | 13.3 | inactive | ≥ 20 µg/mL | inactive | 50 | 2 | 16 | – | 100 µg/mL | – | – | – | – | – | – | – | 100 µg/mL | – | > 20 | > 20 | > 20 | > 20 | > 20 | > 20 | > 20 | > 20 | > 20 | > 20 | > 20 | – | – | selectivity ratio [14]: > 5; selectivity ratio [16]: > 5; selectivity ratio [17]: > 5; selectivity ratio [18]: > 5; EC50 [19]: > 20 µg/mL; EC50 (Coxsackievirus B4 [20]): > 20 µg/mL; selectivity ratio [21]: > 5
7 | Nc1ccn(C[C@@H](CO)OCP(=O)(O)O)c(=O)n1 [CIDOFOVIR] | – | – | – | – | – | – | – | 5.30 | > 250 µM | < 3.60 | – | – | – | – | 5.52 | – | – | – | – | – | – | – | – | – | – | – | – | – | – | – | – | –
8 | Cc1ccc(C2=NN(c3ccccc3)C(c3ccc(OCc4ccccc4)cc3)C2)cc1 (stereo not given) | 31 | inactive | 100 µg/mL | inactive | 58 | 14 | 39 | – | 100 µg/mL | – | – | – | – | – | – | – | 100 µg/mL | – | > 20 | > 20 | > 20 | > 20 | > 20 | > 20 | > 20 | > 20 | > 20 | > 20 | > 20 | – | – | selectivity ratio [14]: > 5; selectivity ratio [16]: > 5; selectivity ratio [17]: > 5; selectivity ratio [18]: > 5; EC50 [19]: > 20 µg/mL; EC50 (Coxsackievirus B4 [20]): > 20 µg/mL; selectivity ratio [21]: > 5
9 | Nc1ncnc2c1ncn2C[C@H](O)CO [(S)-DHPA] | – | – | > 250 µM | – | – | – | – | – | – | – | – | – | < 3.60 | < 3.60 | – | < 3.60 | > 250 µM | < 3.60 | – | – | – | – | – | – | – | – | – | – | – | < 3.60 | < 3.60 | pEC50 [19]: < 3.60; pEC50 (Coxsackievirus B4 [20]): < 3.60
10 | c1ccc(COc2ccc(C3CC(c4ccccc4)=NN3c3ccccc3)cc2)cc1 (stereo not given) | 0 | inactive | 100 µg/mL | inactive | 30 | 7 | 23 | – | 100 µg/mL | – | – | – | – | – | – | – | 100 µg/mL | – | > 20 | > 20 | > 20 | > 20 | > 20 | > 20 | > 20 | > 20 | > 20 | > 20 | > 20 | – | – | selectivity ratio [14]: > 5; selectivity ratio [16]: > 5; selectivity ratio [17]: > 5; selectivity ratio [18]: > 5; EC50 [19]: > 20 µg/mL; EC50 (Coxsackievirus B4 [20]): > 20 µg/mL; selectivity ratio [21]: > 5
11 | Cc1ccc(C2=NOC(c3ccc(OCc4ccccc4)cc3)C2)cc1 (stereo not given) | 45 | inactive | > 100 µg/mL | inactive | 79 | 27 | 46 | – | – | – | – | – | – | – | – | – | – | – | – | – | – | – | – | – | – | – | – | – | – | – | – | –
12 | Clc1ccc(C2=NN(c3ccccc3)C(c3ccc(OCc4ccccc4)cc3)C2)cc1 (stereo not given) | 19 | inactive | 100 µg/mL | inactive | 43 | 0 | 21 | – | 100 µg/mL | – | – | – | – | – | – | – | ≥ 20 µg/mL | – | > 20 | > 20 | > 20 | > 20 | > 20 | > 20 | > 20 | > 20 | > 20 | > 20 | > 20 | – | – | selectivity ratio [14]: > 5; selectivity ratio [16]: > 5; selectivity ratio [17]: > 5; selectivity ratio [18]: > 5; EC50 [19]: > 20 µg/mL; EC50 (Coxsackievirus B4 [20]): > 20 µg/mL; selectivity ratio [21]: > 5
13 | O=c1[nH]c(=O)n([C@H]2C[C@H](O)[C@@H](CO)O2)cc1/C=C/Br [BRIVUDINE] | – | – | – | – | – | – | – | 3.90 | > 250 µM | < 3.60 | – | < 3.60 | – | – | – | – | – | – | – | – | – | – | – | – | – | – | – | – | – | – | – | –
